Measured values reported in US8614254B2, “Methods and compositions for treating thalamocortical dysrhythmia” (New York University, priority 2007, dated 2013).

What was measured:
[1] = system: low threshold activated Cav3 calcium currents (Cav3.1); assay: Whole-cell voltage-clamp patch recording of low threshold activated calcium currents in ventrobasal thalamic neurons of brain slices; assay type: cell-based, rodents (Long-Evans rats, Harley guinea pigs); details: for Cav3 peak currents (I-V curve): FIG. 2B
[2] = system: high voltage activated calcium currents; assay: Whole-cell voltage-clamp patch recording, slow component when low and high voltage activated calcium currents are open; assay type: cell-based, rodents (Long-Evans rats, Harley guinea pigs); details: 10 μM; −10 mV, both low and high voltage activated calcium currents open; FIG. 1B
[3] = system: thalamic neurons (low threshold spikes, low frequency oscillations); assay type: cell-based
EEG frequency profile = assay: EEG recording with Fast Fourier transform frequency analysis in wild type and alpha-1A knockout mice; assay type: in vivo, mouse
Procedure: Alpha1A knockout mice, which have an enhanced Cav3 calcium channel activity, develop progressive neurological symptoms resembling Thalamo-cortical Dysrhythmia characterized specifically by ataxia and dystonia, before dying, around four weeks after birth (Jun et al. (1999) Proc. Natl. Acad. Sci. USA. 96(26):15245-50).
When a Fast Fourier transform analysis is performed in two segments of 1 second each (FIG. 7A, segments a and b) from the same wild type trace, a wide range of frequencies is observed. Importantly, the presence of high frequencies in the range of gamma band is observed (FIG. 7A, red arrows). In contrast, an alpha-1A knockout mouse presents a totally different EEG recoding.
The administration of 1-octanol (Sinton et al., (1989) Pflügers Archiv 414: 31-36) in wild types versus knockout mice allows the quantification of the effects of such a drug in the high and low frequencies in the EEG. Since knockout mice only present low frequencies, a dose-response curve of 1-octanol can be easily prepared. Also, an augmentation in the ratio of high/low frequencies is expected for the wild types treated with 1-octanol.
Analysis of the frequency components plotted in blue bars show a decrease in the low frequencies (0-15 Hz) and an increase in hi frequencies (30-45 Hz) consistent with the fact that Cav3 channels are responsible for low frequencies and their block produces an increase in high frequency.

[4] = system: thalamic neurons (low threshold spike); assay type: cell-based, mouse
[5] = system: thalamic neurons (high-frequency 40 Hz subthreshold oscillation); assay type: cell-based, mouse
[6] = 50 μM, wild-type mouse, TTX 2 μM
[7] = wild-type mice, i.p., 0.2 mg/kg, FIG. 7D

Structure (SMILES): CCCCCCCCO [1-octanol]
- block of peak fast activated Cav3.1 calcium current (ICa) amplitude ([1]; 10 μM, holding level −30 mV where only low voltage activated calcium currents can be open, FIG. 1A): about 30%
- specificity of block of low threshold activated Cav3-type currents ([1]; ventrobasal thalamic neurons, conclusion from FIG. 1A and 1B): specifically block
- slow component that remains open at the end of the depolarized pulse [2]: leaving unchanged
- peak of low threshold spikes activated using ramps of current ([3]; 50 μM, FIG. 4A and 4B): further decreases
- membrane resistance ([3]; after blocking Cav3 calcium currents, same amplitude current pulse): increments
- effect on the low threshold spikes ([3]; current clamp, FIG. 4A and 4B): concentration-dependent
- ratio of high/low frequencies in the EEG (EEG frequency profile; wild types treated, expected): augmentation

Structure (SMILES): CCCCCCC(C)O (centres unmarked) [2-octanol]
- Cav3 peak currents (I-V curve) ([1]; 10 μM): partially reduced
- Cav3 peak currents (I-V curve) ([1]; 100 μM): almost abolished
- low threshold activated Cav3 calcium currents ([1]; 100 μM, voltage clamp, high Cs/QX314 intracellular solution): completely abolished
- Cav3 calcium currents peak with increasing concentrations ([1]; holding −70 mV, steps to −60, −30, −20 and −10 mV, FIG. 2A): progressive reduction
- thalamic low frequency oscillatory activity (low threshold spikes firing at 2 Hz) ([3]; 10 μM, five min. of perfusion, FIG. 3A): complete abolishment
- reversibility of the abolishment of oscillatory activity ([3]; after 40 min. of washout): partially reversible
- low threshold spike ([3]; after TTX removal from the external solution, FIG. 5A and 5B): block
- frequency of action potentials of the thalamic neurons ([3]; after TTX removal, after block of low threshold spike, increment in input resistance): notably increased

Structure (SMILES): CCCCCCCCO [octanol]
- low threshold activated Cav3 calcium currents of neurons of the thalamic Ventrobasal nucleus ([1]; clinical concentrations at micromolar level, summary of the examples): significantly reversibly block
- rebound low threshold spike [4, 6]: abolished
- low threshold spike ([4]; alpha1A-KO mouse, TTX, FIG. 6B): blocked
- 40 Hz oscillations on depolarizing square pulses [5, 6]: are observed
- high-frequency 40 Hz oscillations ([5]; alpha1A-KO mouse, before or after application): no high-frequency 40 Hz oscillations are present
- high frequency oscillations in the thalamic neurons ([5]; summary of the examples): does not appear to affect
- EEG hi frequencies (30-45 Hz) (EEG frequency profile; [7]): increase
- EEG low frequencies (0-15 Hz) (EEG frequency profile; [7]): decrease
